US20230286958A1, “PLASMA KALLIKREIN INHIBITORS” (Merck Sharp & Dohme LLC, priority 2020, published 2023)

Assays:
Human plasma kallikrein = Human plasma kallikrein (Homo sapiens (Human), UniProt P03952); test: Kallikrein Assay (fluorogenic substrate Acetyl-K-P-R-AFC); type: biochemical; conditions: Plasma Kallikrein (PKal)
Outline: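 Ki is derived from IC50 with the Cheng-Prusoff equation, and IC50 from the inflection point of a four-parameter logistic curve. The rate of AFC release is read with 0.5 nM purified enzyme and […] substrate at room temperature or 37 °C.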

human Factor XIa = human Factor XIa (Homo sapiens (Human), UniProt P03951); test: Factor XIa Assay (fluorogenic substrate GPR-AFC); type: biochemical; conditions: Factor XIa (FXIa)
Sequence of human Factor XIa (P03951 388-625 limits assumed): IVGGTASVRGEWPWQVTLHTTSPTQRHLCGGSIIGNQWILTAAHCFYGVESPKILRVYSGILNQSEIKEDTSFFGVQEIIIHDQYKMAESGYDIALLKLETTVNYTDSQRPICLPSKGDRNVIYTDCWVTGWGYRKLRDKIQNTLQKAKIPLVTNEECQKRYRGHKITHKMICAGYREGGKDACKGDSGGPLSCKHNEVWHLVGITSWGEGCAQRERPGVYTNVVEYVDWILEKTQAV
Sequence of human Factor XIa (P03951 19-387 partner limits assumed): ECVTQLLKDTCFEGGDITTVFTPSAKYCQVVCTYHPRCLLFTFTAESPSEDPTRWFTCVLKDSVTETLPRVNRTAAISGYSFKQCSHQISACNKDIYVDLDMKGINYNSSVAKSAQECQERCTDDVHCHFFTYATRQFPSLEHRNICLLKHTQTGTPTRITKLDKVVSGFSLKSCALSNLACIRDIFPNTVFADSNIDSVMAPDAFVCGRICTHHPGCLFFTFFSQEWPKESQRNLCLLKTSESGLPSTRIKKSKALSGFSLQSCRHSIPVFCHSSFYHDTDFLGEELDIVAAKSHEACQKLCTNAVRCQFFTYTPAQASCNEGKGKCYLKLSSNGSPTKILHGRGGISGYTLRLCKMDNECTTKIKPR

Sequence of Human plasma kallikrein (P03952 391-638): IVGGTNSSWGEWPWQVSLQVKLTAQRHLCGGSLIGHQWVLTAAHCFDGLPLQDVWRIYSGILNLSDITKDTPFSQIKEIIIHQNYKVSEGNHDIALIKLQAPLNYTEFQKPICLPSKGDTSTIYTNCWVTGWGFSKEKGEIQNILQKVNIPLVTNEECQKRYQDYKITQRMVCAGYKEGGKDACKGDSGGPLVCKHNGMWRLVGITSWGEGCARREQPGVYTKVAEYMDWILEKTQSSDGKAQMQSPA
Sequence of Human plasma kallikrein (P03952 20-390 partner): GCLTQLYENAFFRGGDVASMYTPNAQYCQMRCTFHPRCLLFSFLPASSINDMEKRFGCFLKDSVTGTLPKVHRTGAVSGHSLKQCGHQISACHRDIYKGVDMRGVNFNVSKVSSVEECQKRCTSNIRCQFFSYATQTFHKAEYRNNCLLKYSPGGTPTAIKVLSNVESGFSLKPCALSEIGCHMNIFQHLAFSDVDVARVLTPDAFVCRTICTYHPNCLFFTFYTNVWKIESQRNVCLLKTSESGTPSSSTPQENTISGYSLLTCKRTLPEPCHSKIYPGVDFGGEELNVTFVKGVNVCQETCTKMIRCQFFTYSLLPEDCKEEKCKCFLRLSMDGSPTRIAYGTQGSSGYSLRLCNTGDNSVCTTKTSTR

SMILES	IC50 (Human plasma kallikrein) [nM]	IC50 (human Factor XIa) [nM]
Cc1nc(N2C[C@H]3C[C@H]3C2=O)ncc1[C@H](CO)n1cc(NC(=O)c2cncc(-c3c(C(F)F)ccc(Cl)c3F)n2)cn1 [Example 160, 6-(3-Chloro-6-(difluoromethyl)-2-fluorophenyl)-N-(1-((R)-2-hydroxy-1-(4-methyl-2-((1R,5S)-2-oxo-3-azabicyclo[3.1.0]hexan-3-yl)pyrimidin-5-yl)ethyl)-1H-pyrazol-4-yl)pyrazine-2-carboxamide]	249	> 10000
COc1ncc(-c2c(OC(F)F)ccc(Cl)c2F)nc1C(=O)Nc1cnn(C(C)c2cnc(N3C[C@H]4C[C@H]4C3=O)c(C)n2)c1 (single isomer, unassigned) [Example 240, 6-(3-Chloro-6-(difluoromethoxy)-2-fluorophenyl)-3-methoxy-N-(1-((R or S)-1-(6-methyl-5-((1R,5S)-2-oxo-3-azabicyclo[3.1.0]hexan-3-yl)pyrazin-2-yl)ethyl)-1H-pyrazol-4-yl)pyrazine-2-carboxamide]	0.4	985
Cc1ncc(-c2c(C(F)F)ccc(Cl)c2F)nc1C(=O)Nc1cnn(C(C)c2ncc(N3C[C@H]4C[C@H]4C3=O)c(C)c2F)c1 (single isomer, unassigned) [Example 245, 6-(3-Chloro-6-(difluoromethyl)-2-fluorophenyl)-N-(1-((S or R)-1-(3-fluoro-4-methyl-5-((1R,5S)-2-oxo-3-azabicyclo[3.1.0]hexan-3-yl)pyridin-2-yl)ethyl)-1H-pyrazol-4-yl)-3-methylpyrazine-2-carboxamide]	0.9	> 10000
Cc1ncc(-c2c(C(F)F)ccc(Cl)c2F)nc1C(=O)Nc1cnn(Cc2ccc(N3C[C@H]4C[C@H]4C3=O)nn2)c1 [Example 21, 6-(3-Chloro-6-(difluoromethyl)-2-fluorophenyl)-3-methyl-N-(1-((6-((1R,5S)-2-oxo-3-azabicyclo[3.1.0]hexan-3-yl)pyridazin-3-yl)methyl)-1H-pyrazol-4-yl)pyrazine-2-carboxamide]	38	7010
Cc1cc(C(C)n2cc(NC(=O)c3cncc(-c4c(C(F)F)ccc(Cl)c4F)n3)cn2)cnc1N1C[C@H]2C[C@H]2C1=O (single isomer, unassigned) [Example 67, 6-(3-Chloro-6-(difluoromethyl)-2-fluorophenyl)-N-(1-((R or S)-1-(5-methyl-6-((1R,5S)-2-oxo-3-azabicyclo[3.1.0]hexan-3-yl)pyridin-3-yl)ethyl)-1H-pyrazol-4-yl)pyrazine-2-carboxamide]	2.1	389
Cc1nc(C(C)n2cc(NC(=O)c3cncc(-c4c(C(F)F)ccc(Cl)c4F)n3)cn2)cnc1N1C[C@H]2C[C@H]2C1=O (single isomer, unassigned) [Example 12, 6-(3-Chloro-6-(difluoromethyl)-2-fluorophenyl)-N-(1-((S or R)-1-(6-methyl-5-((1R,5S)-2-oxo-3-azabicyclo[3.1.0]hexan-3-yl)pyrazin-2-yl)ethyl)-1H-pyrazol-4-yl)pyrazine-2-carboxamide]	1.9	1160
Cc1cc(C(C)n2cc(NC(=O)c3nc(-c4c(C(F)F)ccc(Cl)c4F)cnc3C)cn2)cnc1N1C[C@H]2C[C@H]2C1=O (single isomer, unassigned) [Example 120, 6-(3-Chloro-6-(difluoromethyl)-2-fluorophenyl)-3-methyl-N-(1-((R or S)-1-(5-methyl-6-((1R,5S)-2-oxo-3-azabicyclo[3.1.0]hexan-3-yl)pyridin-3-yl)ethyl)-1H-pyrazol-4-yl)pyrazine-2-carboxamide]	0.5	149
Cc1ncc(-c2c(C(F)F)ccc(Cl)c2F)nc1C(=O)Nc1cnn(C(C)c2cnc(N3C[C@H]4C[C@H]4C3=O)c3c2OC(F)(F)O3)c1 (single isomer, unassigned) [Example 247, 6-(3-Chloro-6-(difluoromethyl)-2-fluorophenyl)-N-(1-((S or R)-1-(2,2-difluoro-4-((1R,5S)-2-oxo-3-azabicyclo[3.1.0]hexan-3-yl)-[1,3]dioxolo[4,5-c]pyridin-7-yl)ethyl)-1H-pyrazol-4-yl)-3-methylpyrazine-2-carboxamide]	0.8	9240
Cc1ncc(-c2c(C#N)ccc(Cl)c2F)nc1C(=O)Nc1cnn(C(C)c2cnc(N3C[C@H]4C[C@H]4C3=O)c(F)c2C)c1 (single isomer, unassigned) [Example 135, 6-(3-Chloro-6-cyano-2-fluorophenyl)-N-(1-((S or R)-1-(5-fluoro-4-methyl-6-((1R,5S)-2-oxo-3-azabicyclo[3.1.0]hexan-3-yl)pyridin-3-yl)ethyl)-1H-pyrazol-4-yl)-3-methylpyrazine-2-carboxamide]	5.4	4880
Cc1ncc(-c2c(C(F)F)ccc(Cl)c2F)nc1C(=O)Nc1cnn(Cc2cnc(N3C[C@H]4C[C@H]4C3=O)c(C)n2)n1 [Example 186, 6-(3-Chloro-6-(difluoromethyl)-2-fluorophenyl)-3-methyl-N-(2-((6-methyl-5-((1R,5S)-2-oxo-3-azabicyclo[3.1.0]hexan-3-yl)pyrazin-2-yl)methyl)-2H-1,2,3-triazol-4-yl)pyrazine-2-carboxamide]	1.4	1380
C[C@@H](c1cnc(N2C[C@H]3C[C@H]3C2=O)nc1)n1cc(NC(=O)c2cncc(-c3c(C(F)F)ccc(Cl)c3F)n2)cn1 [Example 172, 6-(3-Chloro-6-(difluoromethyl)-2-fluorophenyl)-N-(1-((S)-1-(2-((1R,5S)-2-oxo-3-azabicyclo[3.1.0]hexan-3-yl)pyrimidin-5-yl)ethyl)-1H-pyrazol-4-yl)pyrazine-2-carboxamide]	6.4	6730
Cc1ncc(-c2c(C(F)F)ccc(Cl)c2F)nc1C(=O)Nc1cnn(C(C)c2cnc(N3C[C@H]4C[C@H]4C3=O)c(Cl)c2)c1 (stereo partly drawn) [Example 91, N-(1-((S)-1-(5-chloro-6-((1R,5S)-2-oxo-3-azabicyclo[3.1.0]hexan-3-yl)pyridin-3-yl)ethyl)-1H-pyrazol-4-yl)-6-(3-chloro-6-(difluoromethyl)-2-fluorophenyl)-3-methylpyrazine-2-carboxamide]	1.3	2580
Cc1cc(C(C)n2cc(NC(=O)c3nc(-c4c(C(F)F)ccc(Cl)c4F)cnc3C(C)O)cn2)cnc1N1C[C@H]2C[C@H]2C1=O (single isomer, unassigned) [Example 210, 6-(3-Chloro-6-(difluoromethyl)-2-fluorophenyl)-3-((S or R)-1-hydroxyethyl)-N-(1-((S or R)-1-(5-methyl-6-((1R,5S)-2-oxo-3-azabicyclo[3.1.0]hexan-3-yl)pyridin-3-yl)ethyl)-1H-pyrazol-4-yl)pyrazine-2-carboxamide]	0.4	186
Cc1ncc(-c2c(C(F)F)ccc(Cl)c2F)nc1C(=O)Nc1cnn(C(C)c2ccc(N3CC4CC4C3=O)nc2)c1 (single isomer, unassigned) [Example 76, 6-(3-Chloro-6-(difluoromethyl)-2-fluorophenyl)-3-methyl-N-(1-((S or R)-1-(6-((1S,5R or 1R,5S)-2-oxo-3-azabicyclo[3.1.0]hexan-3-yl)pyridin-3-yl)ethyl)-1H-pyrazol-4-yl)pyrazine-2-carboxamide]	43	> 10000
